Key:
[1] = molecular target: T1, human p38 kinase alpha (Homo sapiens, UniProt Q16539); assay: p38 kinase in vitro assay, phosphorylation of biotinylated PHAS-I with gamma 32P-ATP; format: biochemical; details: activated human p38 kinase alpha, PHAS-I substrate, 50 μM unlabeled ATP; read-out: p38 kinase IC50
T1 construct: The coding region of the human p38a cDNA was obtained by PCR-amplification from RNA isolated from the human monocyte cell line THP.1; GST (N); made in house; host or cells: E. coli DH10B
T1 sequence (Q16539 whole entry): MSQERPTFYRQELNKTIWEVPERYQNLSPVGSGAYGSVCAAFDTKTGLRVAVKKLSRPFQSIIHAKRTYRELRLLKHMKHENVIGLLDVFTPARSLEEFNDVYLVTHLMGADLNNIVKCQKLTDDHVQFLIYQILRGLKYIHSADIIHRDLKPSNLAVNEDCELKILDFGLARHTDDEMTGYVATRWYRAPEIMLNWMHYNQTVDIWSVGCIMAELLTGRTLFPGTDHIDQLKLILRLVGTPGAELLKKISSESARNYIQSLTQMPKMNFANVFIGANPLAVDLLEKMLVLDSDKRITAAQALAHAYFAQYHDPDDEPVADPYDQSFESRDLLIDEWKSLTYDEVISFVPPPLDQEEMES
How it was run: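 MKK6-activated human p38α phosphorylates biotinylated PHAS-I with γ-32P-ATP in 25 mM HEPES pH 7.5, 10 mM Mg acetate, 50 μM unlabeled ATP, 1% DMSO, 30 °C for 1 h or overnight. Compounds at 100–0.001 μM (10-fold steps, triplicate); substrate captured on streptavidin filter plates and counted by scintillation.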

[2] = test system: TNF a; assay: LPS stimulation of human PBMs, TNF a by ELISA; format: cell-based; details: LPS-stimulated human PBMs, TNF cell assay; read-out: Human PBM Assay IC50
Method: Human whole blood was collected in Vacutainer tubes containing EDTA as an anticoagulant. A blood sample (7 ml) was carefully layered over 5 ml PMN Cell Isolation Medium (Robbins Scientific) in a 15 ml round bottom centrifuge tube. The sample was centrifuged at 450-500×g for 30-35 minutes in a swing out rotor at room temperature. After centrifugation, the top band of cells were removed and washed 3 times with PBS w/o calcium or magnesium. The cells were centrifuged at 400×g for 10 minutes at room temperature. The cells were resuspended in Macrophage Serum Free Medium (Gibco BRL) at a concentration of 2 million cells/ml.
Compounds were dissolved in DMSO initially and diluted in TCM for a final-concentration of 0.1% DMSO. LPS (Calbiochem, 20 ng/ml, final concentration) was then added at a volume of 0.010 ml. Cultures were incubated overnight at 37° C. Supernatants were then removed and tested by ELISA for TNF a and IL1-b. Viability was analyzed using MTS. After 0.1 ml supernatant was collected, 0.0,20 ml MTS was added to remaining 0.1 ml cells.

[3] = test system: TNF-α; assay: LPS stimulation of TNF production by U937 cells; format: cell-based, human; details: Homo sapiens, U-937, LPS-stimulated U937 cells; read-out: U937 Cell Assay IC50
How it was run: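 PMA-differentiated human U937 cells (20 ng/ml PMA, 24 h, then 24-48 h rest) at 2 million cells/ml, 0.1% DMSO final, stimulated with E. coli LPS (100 ng/ml final) for 4 h at 37° C. TNF-α in medium measured by ELISA; IC50 in μM.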

IC50 [1]: 1.5 µM | IC50 [2]: 1.6 µM | IC50 [3]: 0.578 µM | melting point: 212 to 214 °C
Compound: Cc1n[nH]c(-c2ccccc2)c1-c1ccncc1 [Example A-2, 4-(3-methyl-5-phenyl-1H-pyrazol-4-yl)pyridine]

— patent US6525059B1, “Substituted pyrazoles as p38 kinase inhibitors” (G. D. Searle & Company, priority 1998, dated 2003)
